Measurements published in patent US10363251B2, “(+)-morphinans as antagonists of toll-like receptor 9 and therapeutic uses thereof” (Mallinckrodt LLC, priority 2009, dated 2019).

How the values were obtained:
Format in all cases: cell-based
TLR7 = target: T1, TLR7 (Homo sapiens, UniProt Q9NYK1); assay: TLR7 antagonist screening, NF-κB-inducible SEAP reporter in HEK293 cells; conditions: for Average % Inhibition at TLR7: 10 μM, stimulated with CL097 at 1 μg/ml
T1 construct: expressed in transfected cells; host or cells: HEK293
T1 sequence (Q9NYK1 27-1049): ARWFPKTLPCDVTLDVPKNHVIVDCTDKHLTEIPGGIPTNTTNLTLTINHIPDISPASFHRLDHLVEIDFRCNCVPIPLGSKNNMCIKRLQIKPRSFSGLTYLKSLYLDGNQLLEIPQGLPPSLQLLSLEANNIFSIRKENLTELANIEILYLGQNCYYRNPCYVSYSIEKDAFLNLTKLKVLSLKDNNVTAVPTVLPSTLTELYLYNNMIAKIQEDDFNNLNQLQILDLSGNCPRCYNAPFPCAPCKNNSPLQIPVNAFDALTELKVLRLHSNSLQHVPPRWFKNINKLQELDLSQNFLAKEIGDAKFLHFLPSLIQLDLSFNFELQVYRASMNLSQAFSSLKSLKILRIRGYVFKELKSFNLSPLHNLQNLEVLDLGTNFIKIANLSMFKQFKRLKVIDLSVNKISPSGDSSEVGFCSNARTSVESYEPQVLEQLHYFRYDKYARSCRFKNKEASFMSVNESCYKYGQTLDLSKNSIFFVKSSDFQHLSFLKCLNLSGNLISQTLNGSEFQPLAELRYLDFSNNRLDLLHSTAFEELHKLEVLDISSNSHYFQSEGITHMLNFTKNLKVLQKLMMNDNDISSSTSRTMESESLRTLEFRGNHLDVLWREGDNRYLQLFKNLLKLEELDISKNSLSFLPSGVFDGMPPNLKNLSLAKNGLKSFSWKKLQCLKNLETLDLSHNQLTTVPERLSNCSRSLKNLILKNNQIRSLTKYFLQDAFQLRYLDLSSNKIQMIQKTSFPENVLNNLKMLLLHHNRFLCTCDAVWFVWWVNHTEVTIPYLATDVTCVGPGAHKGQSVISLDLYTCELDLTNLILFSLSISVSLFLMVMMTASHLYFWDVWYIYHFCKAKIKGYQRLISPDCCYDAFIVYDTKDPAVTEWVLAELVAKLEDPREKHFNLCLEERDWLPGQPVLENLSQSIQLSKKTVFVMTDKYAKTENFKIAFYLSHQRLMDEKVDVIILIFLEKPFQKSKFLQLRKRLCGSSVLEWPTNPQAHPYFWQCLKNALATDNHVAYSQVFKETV
Protocol: (§1) Stimulation of TLRs 2, 3, 4, 5, 7, 8, and 9 was determined by assessing activation of the transcription factor NF-κB in HEK293 cells that were engineered to express the corresponding receptors. Assessment of TLR stimulation was based on the use of an NF-κB-inducible secreted alkaline phosphatase (SEAP) reporter system in which the SEAP reporter was under the control of a promoter inducible by NF-κB. Thus, the degree of activation of TLRs can be indirectly quantified spectrophotometrically by measuring the amount of the SEAP reporter that is produced.
(§2) The appropriate TLR-expressing cells were plated in Growth Medium in a 96-well plate (25,000-50,000 cells/well). The cells were stimulated with the appropriate positive control ligand or no ligand was added (negative control). The positive control ligands were: HKLM was used to stimulate TLR2; poly(I:C) was used to stimulate TLR3; LPS was used to stimulate TLR4; Flagellin was used to stimulate TLR5; CL097 was used to stimulate TLR7; CL075 was used to stimulate TLR8; CpG oligodeoxynucleotide (ODN) 2006 was used to stimulate TLR9. To test whether (+)-morphinans could block that activation of the TLR, the cells were pretreated with an antagonist for 30 minutes prior to addition of the positive control ligand. […] After a 16-20 hr incubation period at 37° C. in a CO2 incubator, 20 μL of the cell culture supernatant was added to 180 μL of QUANTI-Blue™ Media (InvivoGen, San Diego, Calif.), and the resulting solutions were incubated at 37° C. for an additional 1-3 hours according to the manufacturer's instructions. The OD's of the samples were then read at 650 nm on a Beckman Coulter AD 340C Absorbance Detector.

TLR5 = target: T2, TLR5 (Homo sapiens, UniProt O60602); assay: TLR5 antagonist screening, NF-κB-inducible SEAP reporter in HEK293 cells; conditions: for Average % Inhibition at TLR5: 10 μM, stimulated with Flagellin at 100 ng/ml
T2 construct: expressed in transfected cells; host or cells: HEK293
T2 sequence (O60602 21-858, species assumed): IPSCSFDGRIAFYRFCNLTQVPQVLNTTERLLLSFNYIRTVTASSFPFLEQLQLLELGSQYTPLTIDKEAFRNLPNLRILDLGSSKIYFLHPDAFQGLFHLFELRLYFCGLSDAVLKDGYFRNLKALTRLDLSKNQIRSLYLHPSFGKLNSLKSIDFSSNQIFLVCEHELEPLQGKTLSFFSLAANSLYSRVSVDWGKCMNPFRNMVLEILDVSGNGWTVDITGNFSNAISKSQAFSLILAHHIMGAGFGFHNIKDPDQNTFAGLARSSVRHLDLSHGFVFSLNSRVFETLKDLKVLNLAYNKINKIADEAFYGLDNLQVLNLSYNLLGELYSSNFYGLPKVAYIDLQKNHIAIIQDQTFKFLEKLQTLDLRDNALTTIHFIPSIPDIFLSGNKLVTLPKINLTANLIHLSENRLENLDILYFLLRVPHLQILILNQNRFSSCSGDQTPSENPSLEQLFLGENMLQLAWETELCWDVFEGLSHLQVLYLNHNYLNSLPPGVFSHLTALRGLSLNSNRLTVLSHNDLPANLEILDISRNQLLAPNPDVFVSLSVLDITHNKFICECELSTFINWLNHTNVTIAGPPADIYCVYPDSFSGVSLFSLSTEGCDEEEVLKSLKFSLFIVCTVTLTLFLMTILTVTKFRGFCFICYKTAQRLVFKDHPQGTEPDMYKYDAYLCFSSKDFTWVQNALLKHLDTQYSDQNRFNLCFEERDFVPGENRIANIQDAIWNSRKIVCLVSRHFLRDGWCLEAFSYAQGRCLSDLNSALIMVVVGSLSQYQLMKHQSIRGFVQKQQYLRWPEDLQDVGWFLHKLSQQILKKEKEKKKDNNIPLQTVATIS
Protocol: as §1
as §2, with “ligand. For this, 20 μL of the stock test compound solution (100 μM in H2O) was added to give a total volume of 200 μL.” for “ligand.”

TLR3 = target: T3, TLR3 (Homo sapiens, UniProt O15455); assay: TLR3 antagonist screening, NF-κB-inducible SEAP reporter in HEK293 cells; conditions: for Average % Inhibition at TLR3: 10 μM, stimulated with poly(I:C) at 1 μg/ml
T3 construct: expressed in transfected cells; host or cells: HEK293
T3 sequence (O15455 24-904, species assumed): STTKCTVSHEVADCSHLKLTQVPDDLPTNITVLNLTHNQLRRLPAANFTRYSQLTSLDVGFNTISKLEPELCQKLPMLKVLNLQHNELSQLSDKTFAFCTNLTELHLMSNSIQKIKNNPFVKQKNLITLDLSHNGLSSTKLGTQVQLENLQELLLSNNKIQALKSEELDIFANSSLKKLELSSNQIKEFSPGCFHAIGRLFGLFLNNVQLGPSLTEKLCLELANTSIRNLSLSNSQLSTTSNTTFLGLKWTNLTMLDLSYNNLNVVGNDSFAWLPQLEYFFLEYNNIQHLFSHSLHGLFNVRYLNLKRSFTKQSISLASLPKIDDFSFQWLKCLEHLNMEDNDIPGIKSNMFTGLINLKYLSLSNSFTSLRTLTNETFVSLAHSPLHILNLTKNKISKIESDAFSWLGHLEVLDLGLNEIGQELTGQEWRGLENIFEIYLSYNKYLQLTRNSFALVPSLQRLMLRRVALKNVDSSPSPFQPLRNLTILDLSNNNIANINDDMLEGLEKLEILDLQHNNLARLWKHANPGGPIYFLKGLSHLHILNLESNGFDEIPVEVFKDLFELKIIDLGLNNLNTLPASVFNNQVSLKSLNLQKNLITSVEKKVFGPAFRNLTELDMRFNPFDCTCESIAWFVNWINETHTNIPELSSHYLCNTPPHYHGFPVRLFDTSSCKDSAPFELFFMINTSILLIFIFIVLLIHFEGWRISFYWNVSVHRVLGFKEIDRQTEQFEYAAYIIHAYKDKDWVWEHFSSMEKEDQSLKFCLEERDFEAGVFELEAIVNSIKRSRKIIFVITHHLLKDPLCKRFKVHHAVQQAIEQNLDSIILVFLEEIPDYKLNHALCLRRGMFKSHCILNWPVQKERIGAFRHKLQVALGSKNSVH
Protocol: as §1
as §2, with “ligand. For this, 20 μL of the stock test compound solution (100 μM in H2O) was added to give a total volume of 200 μL.” for “ligand.”

SMILES | Average % Inhibition at TLR7 (TLR7) [%] | Average % Inhibition at TLR5 (TLR5) [%] | Average % Inhibition at TLR3 (TLR3) [%] | inhibition at 10 µM (TLR7; HEK293, stimulated with CL097 at 1 μg/ml) [%] | inhibition at 10 µM (TLR5; HEK293, stimulated with Flagellin at 100 ng/ml) [%] | inhibition at 10 µM (TLR3; HEK293, stimulated with poly(I:C) at 1 μg/ml) [%]
C=CCN1CC[C@]23c4c5ccc(O)c4O[C@H]2C(=O)CC[C@]3(O)[C@H]1C5 [(+)-Naloxone, (+)-naloxone] | 18 | 17 | 27 | – | – | –
COc1ccc2c(c1O)[C@@]13CCN(C)[C@@H](C2)[C@H]1CC(OC)C(=O)C3 (stereo partly drawn) [Dihydrosinomenine, dihydrosinomenine] | 11 | 16 | 40 | – | – | –
COC1=C[C@@H]2[C@@H]3Cc4ccc(OC)c(O)c4[C@]2(CCN3C)CC1=O [Sinomenine, sinomenine] | – | – | – | 20 | 19 | 28
